In US20130196984A1, “3-AMINO-5-PHENYL-56-DIHYDRO-2H-[1,4]OXAZINES” (Siena Biotech S.p.A., priority 2009, published 2013):
Where a name gives a salt, the structure may show the parent alone.

Experiments:
BACE1 [1] = target: T1, BACE1 (Homo sapiens, UniProt P56817); assay: Assay A: binding studies using SPR based methods, immobilised BACE1; parameters: 6his-tagged full length BACE 1 expressed in SF9 cells; 6His; made in house; host or cells: SF9 insect cells; conditions: CM5 chip, immobilised 6his-tagged full length BACE 1, acetate buffer pH 4.6, 4% DMSO;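 further: KD from a 1:1 kinetic fit (koff/kon) of real-time association and dissociation curves, or for fast binders from end-of-association equilibrium responses plotted against log concentration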
BACE2 [2] = target: T2, BACE2 (Homo sapiens, UniProt Q9Y5Z0); assay: Assay A: binding studies using SPR based methods, immobilised BACE2; conditions: CM5 chip, immobilised BACE2 enzyme ectodomain, acetate buffer pH 4.6, 4% DMSO
T2 construct: BACE2 enzyme ectodomain (derived from plasmid “pET17b-T7-hu proBACE2”); T7 (N); made in house
T2 sequence (Q9Y5Z0 63-473 limits assumed): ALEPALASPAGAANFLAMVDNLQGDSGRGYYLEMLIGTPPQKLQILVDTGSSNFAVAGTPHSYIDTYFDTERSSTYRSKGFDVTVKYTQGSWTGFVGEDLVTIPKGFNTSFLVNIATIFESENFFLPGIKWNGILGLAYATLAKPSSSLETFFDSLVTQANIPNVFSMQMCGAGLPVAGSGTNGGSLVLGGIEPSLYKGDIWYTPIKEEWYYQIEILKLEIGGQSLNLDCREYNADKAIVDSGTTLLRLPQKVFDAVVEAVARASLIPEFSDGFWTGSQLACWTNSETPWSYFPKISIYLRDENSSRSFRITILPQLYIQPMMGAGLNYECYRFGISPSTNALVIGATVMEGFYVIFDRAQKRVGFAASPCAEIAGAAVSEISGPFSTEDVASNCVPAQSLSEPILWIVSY

BACE1 [3] = target: T1, BACE1; assay: Cellular Abeta-lowering assay; type: cell-based; parameters: endogenous in cells; host or cells: HEK293 stably transfected with human APP695 wt; conditions: HEK293 cells stably transfected with human APP wt (APP695), Aβ40 ELISA of supernatant after 18-20 hrs
BACE2 [4] = target: T3, BACE2 (Rattus norvegicus, UniProt Q6IE75); assay: Assay for BACE inhibition by measuring cellular TMEM27 cleavage; type: cell-based; conditions: INS-TMEM27 (INS1e-derived) cells, ELISA of shed human TMEM27 in supernatant;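 further: inhibitor added 2 h before doxycycline-induced hTMEM27 expression, supernatant collected after further 46 h, endogenous BACE2 activity read as reduced TMEM27 shedding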
T3 construct: endogenous cellular BACE2 in the Ins1e rat cell line; endogenous in cells; host or cells: INS-TMEM27 (INS1e-derived rat cell line with doxycycline-inducible full-length hTMEM27)
T3 sequence (Q6IE75 63-514): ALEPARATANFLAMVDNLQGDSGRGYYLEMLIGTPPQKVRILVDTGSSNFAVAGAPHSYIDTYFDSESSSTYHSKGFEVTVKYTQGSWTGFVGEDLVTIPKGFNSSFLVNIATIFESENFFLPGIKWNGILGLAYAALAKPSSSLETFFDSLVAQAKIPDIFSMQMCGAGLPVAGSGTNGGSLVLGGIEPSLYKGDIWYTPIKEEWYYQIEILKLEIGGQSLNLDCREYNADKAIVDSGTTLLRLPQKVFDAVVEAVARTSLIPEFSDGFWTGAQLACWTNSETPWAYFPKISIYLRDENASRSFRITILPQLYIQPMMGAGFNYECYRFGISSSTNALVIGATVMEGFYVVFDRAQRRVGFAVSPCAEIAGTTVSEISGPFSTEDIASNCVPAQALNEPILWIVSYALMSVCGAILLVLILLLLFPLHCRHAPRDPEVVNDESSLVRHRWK

T1 sequence (P56817 46-501): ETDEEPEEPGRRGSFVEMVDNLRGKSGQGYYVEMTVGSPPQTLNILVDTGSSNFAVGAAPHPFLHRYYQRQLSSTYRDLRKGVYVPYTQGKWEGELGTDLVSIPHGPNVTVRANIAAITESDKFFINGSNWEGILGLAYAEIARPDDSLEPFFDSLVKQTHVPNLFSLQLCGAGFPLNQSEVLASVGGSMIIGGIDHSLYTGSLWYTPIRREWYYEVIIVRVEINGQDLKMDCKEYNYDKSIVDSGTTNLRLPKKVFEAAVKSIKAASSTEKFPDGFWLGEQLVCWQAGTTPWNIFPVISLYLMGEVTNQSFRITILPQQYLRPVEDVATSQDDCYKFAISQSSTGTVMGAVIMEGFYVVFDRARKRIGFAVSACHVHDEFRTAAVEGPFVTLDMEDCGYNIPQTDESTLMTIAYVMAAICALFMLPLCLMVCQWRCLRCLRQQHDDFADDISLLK

Row | Kd (BACE1 [1]) [nM] | Kd (BACE2 [2]) [nM] | IC50 (BACE1 [3]) [nM] | IC50 (BACE2 [4]) [nM] | Compound
1 | 39 | 32 | 21 | 44 | C[C@@]1(c2cc(NC(=O)c3ncc(C(F)(F)F)cc3Cl)ccc2F)COCC(N)=N1 [Example 38, 3-chloro-5-trifluoromethyl-pyridine-2-carboxylic acid [3-((R)-5-amino-3-methyl-3,6-dihydro-2H-[1,4]oxazin-3-yl)-4-fluoro-phenyl]-amide]
2 | 15 | 2 | 13 | 2 | C[C@@]1(c2cc(NC(=O)c3ccn(C(F)F)n3)ccc2F)COCC(N)=N1 [Example 40, 1-difluoromethyl-1H-pyrazole-3-carboxylic acid [3-((R)-5-amino-3-methyl-3,6-dihydro-2H-[1,4]oxazin-3-yl)-4-fluoro-phenyl]-amide]
3 | 54 | 6 | 26 | 4 | C[C@@]1(c2cc(NC(=O)c3ncc(F)cc3F)ccc2F)COCC(N)=N1 [Example 41, 3,5-difluoro-pyridine-2-carboxylic acid [3-((R)-5-amino-3-methyl-3,6-dihydro-2H-[1,4]oxazin-3-yl)-4-fluoro-phenyl]-amide]
4 | 85 | 5 | 79 | 13 | Cn1cc(Cl)c(C(=O)Nc2ccc(F)c([C@]3(C)COCC(N)=N3)c2)n1 [Example 43, 4-chloro-1-methyl-1H-pyrazole-3-carboxylic acid [3-((R)-5-amino-3-methyl-3,6-dihydro-2H-[1,4]oxazin-3-yl)-4-fluoro-phenyl]-amide]
5 | 10800 | 629 | 1350 | 720 | C[C@@]1(c2cc(NC(=O)c3sccc3Cl)ccc2F)COCC(N)=N1 [Example 46, 3-chloro-thiophene-2-carboxylic acid [3-((R)-5-amino-3-methyl-3,6-dihydro-2H-[1,4]oxazin-3-yl)-4-fluoro-phenyl]-amide]
6 | 16 | 25 | 3 | 39 | C[C@@]1(c2cc(NC(=O)c3ccc(C#N)cn3)ccc2F)COCC(N)=N1 [Example 72, 5-cyano-pyridine-2-carboxylic acid [3-((R)-5-amino-3-methyl-3,6-dihydro-2H-[1,4]oxazin-3-yl)-4-fluoro-phenyl]-amide hydrochloride]
7 | 9 | 51 | 4 | 105 | C[C@@]1(c2cc(NC(=O)c3ccc(OC(F)F)cn3)ccc2F)COCC(N)=N1 [Example 73, 5-difluoromethoxy-pyridine-2-carboxylic acid [3-((R)-5-amino-3-methyl-3,6-dihydro-2H-[1,4]oxazin-3-yl)-4-fluoro-phenyl]-amide hydrochloride]
8 | 10 | 2 | 4 | 1350 | C[C@@]1(c2cc(NC(=O)c3ncc(Cl)cc3F)ccc2F)COCC(N)=N1 [Example 74, 5-Chloro-3-fluoro-pyridine-2-carboxylic acid [3-((R)-5-amino-3-methyl-3,6-dihydro-2H-[1,4]oxazin-3-yl)-4-fluoro-phenyl]-amide hydrochloride]
9 | 2270 | 45 | 700 | 84 | C[C@@]1(c2cc(NC(=O)c3ncco3)ccc2F)COCC(N)=N1 [Example 80, oxazole-2-carboxylic acid [3-((R)-5-amino-3-methyl-3,6-dihydro-2H-[1,4]oxazin-3-yl)-4-fluoro-phenyl]-amide]
10 | 102 | 256 | 47 | 210 | C[C@@]1(c2cc(NC(=O)c3cnc(C(F)(F)F)cn3)ccc2F)COCC(N)=N1 [Example 81, 5-trifluoromethyl-pyrazine-2-carboxylic acid [3-((R)-5-amino-3-methyl-3,6-dihydro-2H-[1,4]oxazin-3-yl)-4-fluoro-phenyl]-amide formate]
11 | 129 | 113 | 46 | 140 | C[C@@]1(c2cc(NC(=O)c3cnc(C(F)(F)F)cn3)ccc2F)COCC(N)=N1 [Example 82, 5-trifluoromethyl-pyrazine-2-carboxylic acid [3-((R)-5-amino-3-methyl-3,6-dihydro-2H-[1,4]oxazin-3-yl)-4-fluoro-phenyl]-amide formate]

The next lines start with the molecule.

Row | Compound | Kd (BACE1 [1]) [nM] | Kd (BACE2 [2]) [nM] | IC50 (BACE1 [3]) [nM] | IC50 (BACE2 [4]) [nM]
12 | Cc1nc(C(=O)Nc2ccc(F)c([C@]3(C)COCC(N)=N3)c2)co1 [Example 39, 2-methyl-oxazole-4-carboxylic acid [3-((R)-5-amino-3-methyl-3,6-dihydro-2H-[1,4]oxazin-3-yl)-4-fluoro-phenyl]-amide] | 45 | 8 | 28 | 130
13 | Cc1ccsc1C(=O)Nc1ccc(F)c([C@]2(C)COCC(N)=N2)c1 [Example 44, 3-methyl-thiophene-2-carboxylic acid [3-((R)-5-amino-3-methyl-3,6-dihydro-2H-[1,4]oxazin-3-yl)-4-fluoro-phenyl]-amide] | 1820 | 43 | 470 | 310
14 | C[C@@]1(c2cc(NC(=O)c3ncoc3-c3ccccc3)ccc2F)COCC(N)=N1 [Example 45, 5-phenyl-oxazole-4-carboxylic acid [3-((R)-5-amino-3-methyl-3,6-dihydro-2H-[1,4]oxazin-3-yl)-4-fluoro-phenyl]-amide] | 3940 | 3020 | 760 | 620
15 | C[C@@]1(c2cc(NC(=O)c3ncccc3OCC(F)(F)F)ccc2F)COCC(N)=N1 [Example 48, 3-(2,2,2-trifluoro-ethoxy)-pyridine-2-carboxylic acid [3-((R)-5-amino-3-methyl-3,6-dihydro-2H-[1,4]oxazin-3-yl)-4-fluoro-phenyl]-amide] | 1200 | 115 | 350 | 52
16 | CC1(C)OCC(N)=N[C@]1(C)c1cc(NC(=O)c2ccc(Cl)cn2)ccc1F [Example 49, 5-chloro-pyridine-2-carboxylic acid [3-((R)-5-amino-2,2,3-trimethyl-3,6-dihydro-2H-[1,4]oxazin-3-yl)-4-fluoro-phenyl]-amide] | 15 | 22 | 4 | 66
17 | CC1(C)OCC(N)=N[C@]1(C)c1cc(NC(=O)c2ccc(OCC(F)(F)F)cn2)ccc1F [Example 50, 5-(2,2,2-trifluoro-ethoxy)-pyridine-2-carboxylic acid [3-((R)-5-amino-2,2,3-trimethyl-3,6-dihydro-2H-[1,4]oxazin-3-yl)-4-fluoro-phenyl]-amide] | 900 | 2100 | 39 | 1400
18 | CC1(C)OC[C@@](C)(c2cccc(NC(=O)c3ccc(Cl)cn3)c2)N=C1N [Example 51, 5-chloro-pyridine-2-carboxylic acid [3-((R)-5-amino-3,6,6-trimethyl-3,6-dihydro-2H-[1,4]oxazin-3-yl)-phenyl]-amide] | 22 | 2 | 14 | 5
19 | C[C@@]1(c2cc(NC(=O)C(F)(F)C(F)F)ccc2F)COCC(N)=N1 [Example 83, N-[3-((R)-5-amino-3-methyl-3,6-dihydro-2H-[1,4]oxazin-3-yl)-4-fluoro-phenyl]-2,2,3,3-tetrafluoro-propionamide formate] | 916 | 276 | 300 | 130
